Publication PMC7265341, “Quantifying CDK inhibitor selectivity in live cells” (Nature Communications, 2020)
Where two headings read alike, the source gives them in different places.

Tests used:
[1] = target: CDK1/Cyclin E1 (Homo sapiens, UniProt P06493); test: NanoBRET live-cell target engagement, CDK1-NanoLuc/Cyclin E1 in HEK-293; assay type: binding; conditions: 10µM, read-out: CDK1/E1 Inhibition at 10µM (%)
[2] = target: CDK2/Cyclin E1 (Homo sapiens, UniProt P24941); test: NanoBRET live-cell target engagement, CDK2-NanoLuc/Cyclin E1 in HEK-293; assay type: binding; conditions: 10µM, read-out: CDK2/E1 Inhibition at 10µM (%)
[3] = target: CDK3/Cyclin E1 (Homo sapiens, UniProt Q00526); test: NanoBRET live-cell target engagement, CDK3-NanoLuc/Cyclin E1 in HEK-293; assay type: binding; conditions: 10µM, read-out: CDK3/E1 Inhibition at 10µM (%)
[4] = target: CDK4/Cyclin D1 (Homo sapiens, UniProt P11802); test: NanoBRET live-cell target engagement, NanoLuc-CDK4/Cyclin D1 in HEK-293; assay type: binding; conditions: 10µM, read-out: CDK4/D1 Inhibition at 10µM (%)
[5] = target: CDK5/CDK5R1 (Homo sapiens, UniProt Q00535); test: NanoBRET live-cell target engagement, CDK5-NanoLuc/CDK5R1 in HEK-293; assay type: binding; conditions: 10µM, read-out: CDK5/CDK5R1 Inhibition at 10µM (%)
[6] = target: CDK6/Cyclin D1 (Homo sapiens, UniProt Q00534); test: NanoBRET live-cell target engagement, NanoLuc-CDK6/Cyclin D1 in HEK-293; assay type: binding; conditions: 10µM, read-out: CDK6/D1 Inhibition at 10µM (%)
[7] = target: CDK7 (Homo sapiens, UniProt P50613); test: NanoBRET live-cell target engagement, NanoLuc-CDK7 in HEK-293; assay type: binding; conditions: 10µM, read-out: CDK7 Inhibition at 10µM (%)
[8] = target: CDK8/Cyclin C (Homo sapiens, UniProt P49336); test: NanoBRET live-cell target engagement, NanoLuc-CDK8/Cyclin C in HEK-293; assay type: binding; conditions: 10µM, read-out: CDK8/C Inhibition at 10µM (%)
[9] = target: CDK9/Cyclin K (Homo sapiens, UniProt P50750); test: NanoBRET live-cell target engagement, NanoLuc-CDK9/Cyclin K in HEK-293; assay type: binding; conditions: 10µM, read-out: CDK9/K Inhibition at 10µM (%)
[10] = target: T1, CDK11A/Cyclin L2 (Homo sapiens, UniProt Q9UQ88); test: NanoBRET live-cell target engagement, CDK11A-NanoLuc/Cyclin L2 in HEK-293; assay type: binding; conditions: 10µM, read-out: CDK11a/L2 Inhibition at 10µM (%)
T1 sequence (Q9UQ88 1-783): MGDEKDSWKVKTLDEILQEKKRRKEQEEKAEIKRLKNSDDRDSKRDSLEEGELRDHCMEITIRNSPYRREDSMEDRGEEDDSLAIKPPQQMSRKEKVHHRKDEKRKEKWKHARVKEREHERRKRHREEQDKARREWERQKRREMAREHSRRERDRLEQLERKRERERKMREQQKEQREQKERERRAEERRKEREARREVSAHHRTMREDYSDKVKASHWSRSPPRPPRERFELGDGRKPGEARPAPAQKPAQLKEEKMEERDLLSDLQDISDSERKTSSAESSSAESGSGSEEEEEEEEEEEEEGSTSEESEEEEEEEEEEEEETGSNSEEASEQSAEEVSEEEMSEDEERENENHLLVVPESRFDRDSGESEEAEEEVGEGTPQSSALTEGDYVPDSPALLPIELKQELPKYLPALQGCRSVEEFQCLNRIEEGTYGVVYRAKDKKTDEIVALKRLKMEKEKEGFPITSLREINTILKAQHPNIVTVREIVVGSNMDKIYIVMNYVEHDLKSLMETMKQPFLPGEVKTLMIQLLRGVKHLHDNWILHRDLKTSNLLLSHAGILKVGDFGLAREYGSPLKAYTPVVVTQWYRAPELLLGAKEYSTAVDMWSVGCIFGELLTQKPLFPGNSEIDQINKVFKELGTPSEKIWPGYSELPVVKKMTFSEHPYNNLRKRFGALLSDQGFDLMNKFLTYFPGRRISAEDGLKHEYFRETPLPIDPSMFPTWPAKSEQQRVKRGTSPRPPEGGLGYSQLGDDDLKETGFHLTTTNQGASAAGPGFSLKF

[11] = target: CDK11B/Cyclin L2 (Homo sapiens, UniProt P21127); test: NanoBRET live-cell target engagement, CDK11B-NanoLuc/Cyclin L2 in HEK-293; assay type: binding; conditions: 10µM, read-out: CDK11b/L2 Inhibition at 10µM (%)
[12] = target: CDK14/Cyclin Y (Homo sapiens, UniProt O94921); test: NanoBRET live-cell target engagement, CDK14-NanoLuc/Cyclin Y in HEK-293; assay type: binding; conditions: 10µM, read-out: CDK14/Y Inhibition at 10µM (%)
[13] = target: CDK15/Cyclin Y (Homo sapiens, UniProt Q96Q40); test: NanoBRET live-cell target engagement, NanoLuc-CDK15/Cyclin Y in HEK-293; assay type: binding; conditions: 10µM, read-out: CDK15/Y Inhibition at 10µM (%)
[14] = target: CDK16/Cyclin Y (Homo sapiens, UniProt Q00536); test: NanoBRET live-cell target engagement, CDK16-NanoLuc/Cyclin Y in HEK-293; assay type: binding; conditions: for inhibition at 10 µM: read-out: CDK16/Y Inhibition at 10µM (%); for IC50: read-out: CDK16/Y IC50
[15] = target: CDK17/Cyclin Y (Homo sapiens, UniProt Q00537); test: NanoBRET live-cell target engagement, CDK17-NanoLuc/Cyclin Y in HEK-293; assay type: binding; conditions: for inhibition at 10 µM: read-out: CDK17/Y Inhibition at 10µM (%); for IC50: read-out: CDK17/Y IC50
[16] = target: CDK18/Cyclin Y (Homo sapiens, UniProt Q07002); test: NanoBRET live-cell target engagement, CDK18-NanoLuc/Cyclin Y in HEK-293; assay type: binding; conditions: 10µM, read-out: CDK18/Y Inhibition at 10µM (%)
[17] = target: CDK20/Cyclin H (Homo sapiens, UniProt Q8IZL9); test: NanoBRET live-cell target engagement, NanoLuc-CDK20/Cyclin H in HEK-293; assay type: binding; conditions: 10µM, read-out: CDK20/H Inhibition at 10µM (%)
[18] = target: CDK19/Cyclin C (Homo sapiens, UniProt Q9BWU1); test: NanoBRET live-cell target engagement, NanoLuc-CDK19/Cyclin C in HEK-293; conditions: read-out: CDK19/C Inhibition at 10µM (%), 10µM
[19] = target: CDK10/Cyclin L2 (Homo sapiens, UniProt Q15131); test: NanoBRET live-cell target engagement, CDK10-NanoLuc/Cyclin L2 in HEK-293; conditions: read-out: CDK10/L2 Inhibition at 10µM (%), 10µM

Sequence of CDK9/Cyclin K (P50750 whole entry): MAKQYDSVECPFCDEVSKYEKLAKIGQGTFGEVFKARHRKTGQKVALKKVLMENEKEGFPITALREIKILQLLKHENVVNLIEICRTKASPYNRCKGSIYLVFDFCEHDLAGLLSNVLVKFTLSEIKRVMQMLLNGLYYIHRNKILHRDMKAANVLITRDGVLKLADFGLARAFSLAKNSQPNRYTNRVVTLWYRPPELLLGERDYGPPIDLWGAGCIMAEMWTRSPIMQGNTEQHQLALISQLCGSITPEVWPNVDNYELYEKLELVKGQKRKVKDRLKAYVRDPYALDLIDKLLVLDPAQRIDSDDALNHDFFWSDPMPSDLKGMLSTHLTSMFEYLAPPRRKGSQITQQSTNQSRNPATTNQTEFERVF
Sequence of CDK9/Cyclin K (O75909 whole entry partner): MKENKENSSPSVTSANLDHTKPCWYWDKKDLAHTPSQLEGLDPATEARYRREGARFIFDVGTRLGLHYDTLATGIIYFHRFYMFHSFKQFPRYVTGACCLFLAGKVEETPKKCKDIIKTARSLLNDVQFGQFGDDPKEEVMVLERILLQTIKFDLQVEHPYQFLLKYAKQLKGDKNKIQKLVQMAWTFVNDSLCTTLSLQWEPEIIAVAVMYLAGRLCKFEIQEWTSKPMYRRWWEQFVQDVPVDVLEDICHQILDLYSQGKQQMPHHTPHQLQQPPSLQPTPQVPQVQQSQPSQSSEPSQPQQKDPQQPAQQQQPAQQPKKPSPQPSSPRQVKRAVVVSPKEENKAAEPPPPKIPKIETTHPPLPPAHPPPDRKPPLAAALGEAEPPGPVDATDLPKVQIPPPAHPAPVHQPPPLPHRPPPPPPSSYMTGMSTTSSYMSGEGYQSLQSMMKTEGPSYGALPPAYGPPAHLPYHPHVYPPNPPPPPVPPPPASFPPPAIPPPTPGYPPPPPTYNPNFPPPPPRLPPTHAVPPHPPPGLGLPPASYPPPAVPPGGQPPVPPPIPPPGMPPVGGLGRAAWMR
Sequence of CDK18/Cyclin Y (Q07002 whole entry): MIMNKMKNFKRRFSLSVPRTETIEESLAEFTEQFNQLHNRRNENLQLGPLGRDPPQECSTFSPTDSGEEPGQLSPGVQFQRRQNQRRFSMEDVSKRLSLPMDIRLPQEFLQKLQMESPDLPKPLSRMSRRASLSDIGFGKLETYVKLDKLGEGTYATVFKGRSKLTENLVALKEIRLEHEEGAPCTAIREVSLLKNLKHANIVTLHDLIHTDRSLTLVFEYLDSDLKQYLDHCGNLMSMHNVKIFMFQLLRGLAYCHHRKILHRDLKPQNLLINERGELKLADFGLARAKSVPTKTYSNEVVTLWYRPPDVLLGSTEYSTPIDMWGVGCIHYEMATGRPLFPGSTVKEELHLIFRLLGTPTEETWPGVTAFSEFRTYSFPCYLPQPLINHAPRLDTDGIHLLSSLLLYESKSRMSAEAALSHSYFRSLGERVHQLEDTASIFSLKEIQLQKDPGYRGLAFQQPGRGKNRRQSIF
Sequence of CDK18/Cyclin Y (Q8ND76 whole entry partner): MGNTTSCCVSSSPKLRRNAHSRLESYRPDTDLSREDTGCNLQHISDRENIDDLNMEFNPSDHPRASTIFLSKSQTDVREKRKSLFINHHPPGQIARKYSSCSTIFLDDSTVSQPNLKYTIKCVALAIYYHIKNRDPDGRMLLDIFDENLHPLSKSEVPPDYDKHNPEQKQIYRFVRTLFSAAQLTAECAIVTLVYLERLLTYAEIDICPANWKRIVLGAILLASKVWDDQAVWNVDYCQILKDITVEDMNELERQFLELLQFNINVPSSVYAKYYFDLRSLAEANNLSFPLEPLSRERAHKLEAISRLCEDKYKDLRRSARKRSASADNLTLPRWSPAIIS
Sequence of CDK17/Cyclin Y (Q00537 whole entry): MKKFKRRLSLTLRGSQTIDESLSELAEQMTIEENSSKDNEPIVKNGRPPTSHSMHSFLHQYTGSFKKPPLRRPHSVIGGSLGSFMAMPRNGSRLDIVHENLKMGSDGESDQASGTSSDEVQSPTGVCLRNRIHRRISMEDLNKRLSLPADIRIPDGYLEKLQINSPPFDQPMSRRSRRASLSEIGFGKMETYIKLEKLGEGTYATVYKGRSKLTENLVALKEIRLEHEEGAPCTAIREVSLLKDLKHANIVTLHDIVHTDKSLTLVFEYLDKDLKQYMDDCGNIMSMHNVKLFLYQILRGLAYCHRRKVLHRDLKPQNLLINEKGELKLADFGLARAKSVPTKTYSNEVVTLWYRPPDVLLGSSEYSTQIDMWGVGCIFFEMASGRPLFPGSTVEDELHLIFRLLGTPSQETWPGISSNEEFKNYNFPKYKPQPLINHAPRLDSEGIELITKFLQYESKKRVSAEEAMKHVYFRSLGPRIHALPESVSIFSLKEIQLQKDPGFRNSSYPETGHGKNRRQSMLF
Sequence of CDK17/Cyclin Y (Q8ND76 whole entry partner): as the sequence (Q8ND76 whole entry partner) above
Sequence of CDK3/Cyclin E1 (Q00526 whole entry): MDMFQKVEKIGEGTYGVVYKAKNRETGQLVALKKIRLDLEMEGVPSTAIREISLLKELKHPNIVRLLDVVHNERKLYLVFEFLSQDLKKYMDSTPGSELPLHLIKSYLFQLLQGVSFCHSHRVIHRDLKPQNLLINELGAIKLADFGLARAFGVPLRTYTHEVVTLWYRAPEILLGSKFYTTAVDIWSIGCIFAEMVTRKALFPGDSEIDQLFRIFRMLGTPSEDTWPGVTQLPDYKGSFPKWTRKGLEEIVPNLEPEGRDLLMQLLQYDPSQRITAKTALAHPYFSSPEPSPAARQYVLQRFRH
Sequence of CDK3/Cyclin E1 (P24864 whole entry partner): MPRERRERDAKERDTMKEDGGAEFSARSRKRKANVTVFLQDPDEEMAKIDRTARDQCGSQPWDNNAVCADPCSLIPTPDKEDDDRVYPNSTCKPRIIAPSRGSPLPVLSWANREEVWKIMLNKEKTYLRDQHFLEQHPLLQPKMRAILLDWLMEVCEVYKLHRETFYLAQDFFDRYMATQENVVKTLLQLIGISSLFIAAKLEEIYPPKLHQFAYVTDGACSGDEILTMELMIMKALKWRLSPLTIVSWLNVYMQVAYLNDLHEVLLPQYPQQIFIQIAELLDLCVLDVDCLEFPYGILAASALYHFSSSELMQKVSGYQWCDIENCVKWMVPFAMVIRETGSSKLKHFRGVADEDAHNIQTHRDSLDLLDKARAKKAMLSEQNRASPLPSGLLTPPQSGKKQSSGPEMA
Sequence of CDK7 (P50613 whole entry): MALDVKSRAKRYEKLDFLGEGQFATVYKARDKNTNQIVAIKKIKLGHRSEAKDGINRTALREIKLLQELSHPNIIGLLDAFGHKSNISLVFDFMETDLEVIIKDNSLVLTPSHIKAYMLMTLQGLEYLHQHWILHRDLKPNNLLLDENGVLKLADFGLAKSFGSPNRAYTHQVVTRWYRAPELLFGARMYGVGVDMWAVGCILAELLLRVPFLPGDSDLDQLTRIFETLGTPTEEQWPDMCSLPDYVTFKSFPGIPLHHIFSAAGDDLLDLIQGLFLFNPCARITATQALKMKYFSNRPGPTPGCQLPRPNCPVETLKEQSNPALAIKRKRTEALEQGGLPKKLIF
Sequence of CDK11B/Cyclin L2 (P21127 1-782 isoform P21127-2): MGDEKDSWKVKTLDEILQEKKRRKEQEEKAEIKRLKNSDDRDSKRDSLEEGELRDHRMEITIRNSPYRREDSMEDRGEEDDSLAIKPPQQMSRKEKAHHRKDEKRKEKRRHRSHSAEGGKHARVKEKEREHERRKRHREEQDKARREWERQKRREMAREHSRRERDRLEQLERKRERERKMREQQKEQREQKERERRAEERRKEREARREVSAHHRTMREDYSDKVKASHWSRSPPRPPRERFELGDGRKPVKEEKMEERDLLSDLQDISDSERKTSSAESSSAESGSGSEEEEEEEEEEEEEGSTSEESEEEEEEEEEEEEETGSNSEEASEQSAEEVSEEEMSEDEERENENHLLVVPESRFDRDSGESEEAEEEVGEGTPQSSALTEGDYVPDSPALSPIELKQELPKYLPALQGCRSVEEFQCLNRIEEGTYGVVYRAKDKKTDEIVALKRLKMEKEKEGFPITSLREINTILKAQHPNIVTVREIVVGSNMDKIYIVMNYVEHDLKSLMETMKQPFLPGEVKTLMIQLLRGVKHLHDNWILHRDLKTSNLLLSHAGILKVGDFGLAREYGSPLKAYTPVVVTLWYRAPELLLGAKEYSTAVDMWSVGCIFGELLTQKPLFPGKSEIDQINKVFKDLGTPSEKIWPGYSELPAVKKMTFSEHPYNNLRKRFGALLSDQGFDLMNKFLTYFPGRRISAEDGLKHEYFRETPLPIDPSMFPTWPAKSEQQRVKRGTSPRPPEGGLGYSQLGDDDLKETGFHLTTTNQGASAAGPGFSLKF
Sequence of CDK19/Cyclin C (Q9BWU1 whole entry): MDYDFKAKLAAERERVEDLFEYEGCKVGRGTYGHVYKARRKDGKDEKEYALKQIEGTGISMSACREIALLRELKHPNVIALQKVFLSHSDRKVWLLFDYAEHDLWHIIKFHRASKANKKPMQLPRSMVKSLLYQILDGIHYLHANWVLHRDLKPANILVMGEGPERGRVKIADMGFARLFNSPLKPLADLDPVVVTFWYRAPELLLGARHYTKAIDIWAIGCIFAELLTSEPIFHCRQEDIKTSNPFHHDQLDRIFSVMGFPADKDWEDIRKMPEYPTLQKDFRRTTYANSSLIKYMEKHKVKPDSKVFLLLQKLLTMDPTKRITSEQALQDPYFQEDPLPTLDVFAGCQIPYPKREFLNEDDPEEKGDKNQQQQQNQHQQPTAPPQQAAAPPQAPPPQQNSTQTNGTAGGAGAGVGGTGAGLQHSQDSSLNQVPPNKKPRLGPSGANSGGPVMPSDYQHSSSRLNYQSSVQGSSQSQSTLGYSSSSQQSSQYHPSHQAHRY
Sequence of CDK19/Cyclin C (P24863 whole entry partner): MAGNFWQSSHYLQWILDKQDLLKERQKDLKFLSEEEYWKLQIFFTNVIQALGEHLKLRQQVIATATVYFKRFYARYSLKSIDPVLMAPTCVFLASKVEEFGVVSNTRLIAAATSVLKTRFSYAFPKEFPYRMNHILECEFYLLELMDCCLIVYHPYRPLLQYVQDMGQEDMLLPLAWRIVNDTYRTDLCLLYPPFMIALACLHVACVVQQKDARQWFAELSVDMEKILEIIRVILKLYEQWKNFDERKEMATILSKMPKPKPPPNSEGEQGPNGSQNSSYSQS

CN1CCN(c2ccc(Nc3ncc4cc5n(c4n3)C3(CCCCC3)CNC5=O)nc2)CC1 [Trilaciclib]
inhibition at 10 µM ([1]; average of experiments): 8.6% | inhibition at 10 µM ([1]; independent experiment 1): 17.2% | inhibition at 10 µM ([1]; independent experiment 2): -0.0634% | inhibition at 10 µM ([2]; average of experiments): 0.461% | inhibition at 10 µM ([2]; independent experiment 1): 1.5% | inhibition at 10 µM ([2]; independent experiment 2): -0.535% | inhibition at 10 µM ([3]; average of experiments): 2.3% | inhibition at 10 µM ([3]; independent experiment 1): 3.5% | inhibition at 10 µM ([3]; independent experiment 2): 1.1% | inhibition at 10 µM ([4]; average of experiments): 93% | inhibition at 10 µM ([4]; independent experiment 1): 97% | inhibition at 10 µM ([4]; independent experiment 2): 88.9% | inhibition at 10 µM ([5]; average of experiments): -10.2% | inhibition at 10 µM ([5]; independent experiment 1): 2.3% | inhibition at 10 µM ([5]; independent experiment 2): -22.7% | inhibition at 10 µM ([6]; average of experiments): 99.4% | inhibition at 10 µM ([6]; independent experiment 1): 98.4% | inhibition at 10 µM ([6]; independent experiment 2): 100% | inhibition at 10 µM ([7]; average of experiments): 8.6% | inhibition at 10 µM ([7]; independent experiment 1): -3.8% | inhibition at 10 µM ([7]; independent experiment 2): 20.9% | inhibition at 10 µM ([8]; average of experiments): 7.6% | inhibition at 10 µM ([8]; independent experiment 1): 7.9% | inhibition at 10 µM ([8]; independent experiment 2): 7.4% | inhibition at 10 µM ([9]; average of experiments): 38.1% | inhibition at 10 µM ([9]; independent experiment 1): 30% | inhibition at 10 µM ([9]; independent experiment 2): 46.2% | inhibition at 10 µM ([10]; average of experiments): 6.5% | inhibition at 10 µM ([10]; independent experiment 1): 7.3% | inhibition at 10 µM ([10]; independent experiment 2): 5.8% | inhibition at 10 µM ([11]; average of experiments): 23.5% | inhibition at 10 µM ([11]; independent experiment 1): 6.3% | inhibition at 10 µM ([11]; independent experiment 2): 40.7% | inhibition at 10 µM ([12]; average of experiments): 11.3% | inhibition at 10 µM ([12]; independent experiment 1): 16.4% | inhibition at 10 µM ([12]; independent experiment 2): 6.2% | inhibition at 10 µM ([13]; average of experiments): 8% | inhibition at 10 µM ([13]; independent experiment 1): 2.9% | inhibition at 10 µM ([13]; independent experiment 2): 13.1% | inhibition at 10 µM ([14]; independent experiment 1): 57.8% | inhibition at 10 µM ([14]; independent experiment 2): 35.1% | IC50 ([14]; average (± SEM where n=3)): 0.6 ± 0.2 µM | IC50 ([14]; independent experiment 1): 0.162 µM | IC50 ([14]; independent experiment 2): 0.87 µM | IC50 ([14]; independent experiment 3): 0.721 µM | inhibition at 10 µM ([15]; average of experiments): 41.1% | inhibition at 10 µM ([15]; independent experiment 1): 49.5% | inhibition at 10 µM ([15]; independent experiment 2): 32.7% | IC50 ([15]; average (± SEM where n=3)): 0.5 ± 0.2 µM | IC50 ([15]; independent experiment 1): 0.113 µM | IC50 ([15]; independent experiment 2): 0.8 µM | IC50 ([15]; independent experiment 3): 0.628 µM | inhibition at 10 µM ([16]; average of experiments): 13.4% | inhibition at 10 µM ([16]; independent experiment 1): 6.3% | inhibition at 10 µM ([16]; independent experiment 2): 20.6% | inhibition at 10 µM ([17]; independent experiment 1): 10% | inhibition at 10 µM ([17]; independent experiment 2): 5.6% | inhibition at 10 µM ([18]; average of experiments): 9.4% | inhibition at 10 µM ([18]; independent experiment 1): 10.3% | inhibition at 10 µM ([18]; independent experiment 2): 8.5% | inhibition at 10 µM ([19]; average of experiments): 11.6% | inhibition at 10 µM ([19]; independent experiment 1): 13.3% | inhibition at 10 µM ([19]; independent experiment 2): 9.9%
